Assay results published in ChEMBL document CHEMBL1128926, “The synthesis of a hematoregulatory agent based on HP-5B containing an effective, achiral cystine replacement” (1996).
Positions of bridges follow the written chain, without caps; N, C: chain ends. Non-standard residues stand in square brackets, D forms with d. Residues, ends and D or L forms follow the SMILES beside them. Chains are numbered I, II in the order given. pGlu = O=C1CC[C@@H](C(=O)O)N1

Test: Compound was evaluated for the production of HSF activity from C6.4 stromal cells using a murine CFU-GM assay.
Type: functional, Mus musculus

| SMILES | HSF activity x10e2 |
| --- | --- |
| NCCCC[C@H](NC(=O)CN(CCCCN(CC(=O)N[C@@H](CCCCN)C(=O)O)C(=O)[C@H](CC(=O)O)NC(=O)[C@H](CCC(=O)O)NC(=O)[C@@H]1CCC(=O)N1)C(=O)[C@H](CC(=O)O)NC(=O)[C@H](CCC(=O)O)NC(=O)[C@@H]1CCC(=O)N1)C(=O)O | 21700 ml |
| NCCCC[C@H](NC(=O)[C@H](CSSC[C@H](NC(=O)[C@H](CC(=O)O)NC(=O)[C@H](CCC(=O)O)NC(=O)[C@@H]1CCC(=O)N1)C(=O)N[C@@H](CCCCN)C(=O)O)NC(=O)[C@H](CC(=O)O)NC(=O)[C@H](CCC(=O)O)NC(=O)[C@@H]1CCC(=O)N1)C(=O)O (I: [pGlu]EDCK-OH / II: [pGlu]EDCK-OH; disulfide I:4-II:4) | 700 ml |
| NCCCC[C@H](NC(=O)[C@H](CCCC[C@H](NC(=O)[C@H](CC(=O)O)NC(=O)[C@H](CCC(=O)O)NC(=O)[C@@H]1CCC(=O)N1)C(=O)N[C@@H](CCCCN)C(=O)O)NC(=O)[C@H](CC(=O)O)NC(=O)[C@H](CCC(=O)O)NC(=O)[C@@H]1CCC(=O)N1)C(=O)O [GLASPIMOD] | 14300 ml |
